How the values were obtained:
[1] = system: GFP (340+341); test: qPCR of GFP transcript (expression of GFP-tagged construct); assay type: cell-based; details: Rep 2; for avg. fold induction GFP (340+341) / fold induction GFP (340+341): relative to empty traffo
[2] = system: caspase 8 in HCT116 lysates; test: Caspase 8 activity (caspase glo 8) of cell lysates / IP inputs; assay type: cell-based, Homo sapiens; details: for Caspase 8 activity, fold change relative to GFP: AVG (n = 3 tech reps); for AVG fold change relative to GFP: average over lysate dilutions; for norm RLUs: rep 2, normalized by lysate quant
Protocol: Cells harvested from a 6-well plate were resuspended in 100 μl of lysis buffer (30 mM HEPES pH 7.2, 150 mM NaCl, 1% Triton X-100) and lysed via needle shearing (25G, 10 passes) followed by a 30 min incubation on ice. Supernatant was collected after centrifuging at 1000xg for 5 min. For the caspase activity assay, 10 μl of supernatant diluted with lysis buffer (1:25, 1:50, 1:100 to stay within linear range of luminescence measurements) was incubated with 10 μl of the luminogenic caspase glo 8 substrate (Promega #PRG8200) in a 384-white walled plate (Corning 3574) for 45 min at RT before measuring luminescence on a Spectramax-M5 plate reader.

[3] = system: DR5; test: GFP immunoprecipitation: DR5 (FADD, caspase 8) recovered with GFP-tagged protein, Western blot; assay type: cell-based, Homo sapiens
Protocol: 15 cm dishes were seeded with 4 million HCT116 cells and allowed to recover for 18 hr prior to transfection. Samples were then transfected for 24 hr with the GFP-tagged ER trafficked protein, cytosolic GFP, or empty vector. To harvest apoptotic and living cells for each sample, all media and washes were collected. Cells were scraped in 2 ml of cold PBS and combined with the media and washes. Samples were centrifuged to pellet cells, washed with 1 ml cold PBS, and flash frozen in liquid N2 prior to lysis.
The cell pellets were resuspended in 750 μl of 30 mM HEPES pH 7.2, 150 mM NaCl, 1% Triton X-100 with 1x Roche protease inhibitor cocktail (if used subsequently for caspase glo 8 assay) or with 5x Roche protease inhibitor cocktail (if used for immunoblotting). The cells were lysed by mechanical shearing through a 25G needle for 13–15 plunges followed by incubation on ice for 30 min. The lysate was centrifuged at 2000xg for 5 min to remove debris and then incubated with 30 μl of GFP-Trap magnetic agarose beads (Chromotek gtma-20) for 4 hr at 4°C. The beads were then washed with 750 μl of lysis buffer for 10 min at 4°C for three rounds.
For Western blots, samples were eluted by adding 35 μl of non-reducing SDS gel loading buffer (50 mM Tris-HCl (pH 6.8), 2% SDS, 0.1% bromophenol blue, 10% glycerol) and incubated for 10 min at 70°C. The beads were then magnetically removed from the eluted sample before adding DTT to a final concentration of 25 mM. The entire sample was loaded onto the gel and immunoblotted for DR5, caspase 8, and GFP, in that order.

[4] = GFP IP, HCT116, average of Rep 1 and Rep 2, SEM in separate column
[5] = GFP IP, HCT116, band intensity, Rep 1

C/C=C(/C)C(=O)O[C@H]1C(C)=C2[C@H]([C@@H]1OC(=O)CCCCCCC)[C@@](C)(OC(C)=O)C[C@H](OC(=O)CCC)[C@@]1(O)[C@H]2OC(=O)[C@@]1(C)O [thapsigargin, reference compound]
avg. fold induction GFP (340+341) ([1]; 24 hr, mean of 3 replicates): 0.3377 | fold induction GFP (340+341) ([1]; 24 hr, replicate 1): 0.335 | fold induction GFP (340+341) ([1]; 24 hr, replicate 2): 0.3372 | fold induction GFP (340+341) ([1]; 24 hr, replicate 3): 0.341 | 2^-(deltaCq) GFP (340+341) ([1]; 24 hr, replicate 1): 5.66e-5 | Cq GFP (340+341) ([1]; 24 hr, replicate 1): 32.8608 | Cq(sample) - avg Cq(GAPDH), GFP (340+341) ([1]; 24 hr, replicate 1): 14.1088 | 2^-(deltaCq) GFP (340+341) ([1]; 24 hr, replicate 2): 5.698e-5 | Cq GFP (340+341) ([1]; 24 hr, replicate 2): 32.8514 | Cq(sample) - avg Cq(GAPDH), GFP (340+341) ([1]; 24 hr, replicate 2): 14.0993 | 2^-(deltaCq) GFP (340+341) ([1]; 24 hr, replicate 3): 5.761e-5 | Cq GFP (340+341) ([1]; 24 hr, replicate 3): 32.8353 | Cq(sample) - avg Cq(GAPDH), GFP (340+341) ([1]; 24 hr, replicate 3): 14.0832 | average fold change relative to empty ([2]; HCT116, rep 1, no siRNA named, average of 4 dilutions): 1.771 fold change | fold change relative to empty ([2]; input, dilution 0.01, rep1): 1.802 | fold change relative to empty ([2]; input, dilution 0.01, rep2): 2.141 | fold change relative to empty ([2]; input, dilution 0.01, rep3): 1.451 | fold change relative to empty ([2]; input, dilution 0.02, rep1): 2.44 | fold change relative to empty ([2]; input, dilution 0.02, rep2): 1.968 | fold change relative to empty ([2]; input, dilution 0.02, rep3): 1.816 | avg fold change ([2]; input, dilution 0.02, second listing, relative to avg. empty, average of rep1-rep3): 2.105 | fold change relative to empty ([2]; input, dilution 0.02, second listing, rep2): 1.992 | fold change relative to empty ([2]; input, dilution 0.02, second listing, rep3): 1.959

FTWRYQPEGGRDAISIFHYA [MPZ-ecto peptide-eGFP, expressed construct: MPZ ectodomain replaced by the MPZ-ecto peptide, GFP-tagged]
Caspase 8 activity, fold change relative to GFP ([2]; Rep 1, HCT116, ecto 400 ng, YYEE and Arom-to-E 200 ng): 2.6 | Caspase 8 activity, fold change relative to GFP ([2]; Rep 2, HCT116, ecto 400 ng, YYEE and Arom-to-E 200 ng): 2.183 | AVG fold change relative to GFP ([2]; Rep 2, HCT116): 2.183 fold | Caspase 8 activity, fold change relative to GFP ([2]; Rep 3, HCT116, ecto 400 ng, YYEE and Arom-to-E 200 ng): 2.309 | AVG fold change relative to GFP ([2]; Rep 3, HCT116): 2.309 fold | Caspase 8 activity, fold change relative to GFP, avg of biological replicates ([2]; avg of n = 3 biol rep, HCT116, ecto 400 ng, YYEE and Arom-to-E 200 ng, SEM of n = 3 in own column): 2.364 | % IP'ed, average [3, 4]: 7.7348% | fraction IP'ed, average [3, 4]: 0.07735 | input (*dilution factor) ([3]; GFP IP, HCT116, band intensity, background subtracted, divided by dilution factor 0.1, Rep 2): 64608140 | beads (*dilution factor) ([3]; GFP IP, HCT116, band intensity, background subtracted, divided by dilution factor 0.25, Rep 2): 5226200 | beads (*diluton factor) [3, 5]: 10106176 | input (*dilution factor) [3, 5]: 136930440 | fraction IP'ed ([3]; GFP IP, HCT116, beads/input, Rep 1): 0.07381 | fraction IP'ed ([3]; GFP IP, HCT116, beads/input, Rep 2): 0.08089 | Mean ± SEM of fraction IP'ed ([3]; GFP IP, HCT116, n=2, from unpaired t test sheet): 0.07735 ± 0.003543, n=2 | DR5 complex proteins in GFP immunoprecipitates ([3]; HCT116, 24 hr post-transfection): enriched for DR5 relative to the Glu-containing mutant peptides | DR5 beads (*diluton factor) ([3]; Rep 1, DR5 blot densitometry of beads (GFP IP), background subtracted, adjusted for dilution factor 0.25): 10106176 | DR5 input (*dilution factor) ([3]; Rep 1, DR5 blot densitometry of input, background subtracted, adjusted for dilution factor 0.1): 136930440 | DR5 fraction IP'ed ([3]; Rep 1, GFP IP, beads over input): 0.07381

INS-GFP: GFP-tagged proinsulin expressed from plasmid
avg. fold induction GFP (340+341) ([1]; 3 hr, mean of 3 replicates): 6059.51 | fold induction GFP (340+341) ([1]; 3 hr, replicate 1): 5553.44 | fold induction GFP (340+341) ([1]; 3 hr, replicate 2): 6428.23 | fold induction GFP (340+341) ([1]; 3 hr, replicate 3): 6196.87 | 2^-(deltaCq) GFP (340+341) ([1]; 3 hr, replicate 1): 0.9383 | Cq GFP (340+341) ([1]; 3 hr, replicate 1): 19.2537 | Cq(sample) - avg Cq(GAPDH), GFP (340+341) ([1]; 3 hr, replicate 1): 0.0918 | 2^-(deltaCq) GFP (340+341) ([1]; 3 hr, replicate 2): 1.086 | Cq GFP (340+341) ([1]; 3 hr, replicate 2): 19.0426 | Cq(sample) - avg Cq(GAPDH), GFP (340+341) ([1]; 3 hr, replicate 2): -0.1192 | 2^-(deltaCq) GFP (340+341) ([1]; 3 hr, replicate 3): 1.047 | Cq GFP (340+341) ([1]; 3 hr, replicate 3): 19.0955 | Cq(sample) - avg Cq(GAPDH), GFP (340+341) ([1]; 3 hr, replicate 3): -0.06635 | avg. fold induction GFP (340+341) ([1]; 7 hr, mean of 3 replicates): 36312.6 | fold induction GFP (340+341) ([1]; 7 hr, replicate 1): 36506.4 | fold induction GFP (340+341) ([1]; 7 hr, replicate 2): 31765.4 | fold induction GFP (340+341) ([1]; 7 hr, replicate 3): 40666.1 | 2^-(deltaCq) GFP (340+341) ([1]; 7 hr, replicate 1): 6.168 | Cq GFP (340+341) ([1]; 7 hr, replicate 1): 16.6754 | Cq(sample) - avg Cq(GAPDH), GFP (340+341) ([1]; 7 hr, replicate 1): -2.625 | 2^-(deltaCq) GFP (340+341) ([1]; 7 hr, replicate 2): 5.3673 | Cq GFP (340+341) ([1]; 7 hr, replicate 2): 16.8761 | Cq(sample) - avg Cq(GAPDH), GFP (340+341) ([1]; 7 hr, replicate 2): -2.4242 | 2^-(deltaCq) GFP (340+341) ([1]; 7 hr, replicate 3): 6.871 | Cq GFP (340+341) ([1]; 7 hr, replicate 3): 16.5198 | Cq(sample) - avg Cq(GAPDH), GFP (340+341) ([1]; 7 hr, replicate 3): -2.781 | avg. 2^-(deltaCq) GFP (340+341) ([1]; 24 hr, mean of 3 replicates): 90.4075 | 2^-(deltaCq) GFP (340+341) ([1]; 24 hr, replicate 1): 82.5431 | Cq GFP (340+341) ([1]; 24 hr, replicate 1): 13.3376 | Cq(sample) - avg Cq(GAPDH), GFP (340+341) ([1]; 24 hr, replicate 1): -6.367 | 2^-(deltaCq) GFP (340+341) ([1]; 24 hr, replicate 2): 92.9155 | Cq GFP (340+341) ([1]; 24 hr, replicate 2): 13.1668 | Cq(sample) - avg Cq(GAPDH), GFP (340+341) ([1]; 24 hr, replicate 2): -6.538 | 2^-(deltaCq) GFP (340+341) ([1]; 24 hr, replicate 3): 95.7639 | Cq GFP (340+341) ([1]; 24 hr, replicate 3): 13.1232 | Cq(sample) - avg Cq(GAPDH), GFP (340+341) ([1]; 24 hr, replicate 3): -6.581 | fold change in caspase 8 activity relative to GFP ([2]; input lysates GFP vs INS vs RHO, Rep1): 2.597 fold | fold change in caspase 8 activity relative to GFP ([2]; input lysates GFP vs INS vs RHO, Rep2): 2.0013 fold | avg fold change in caspase 8 activity relative to GFP ([2]; input lysates GFP vs INS vs RHO, average of Rep1 and Rep2): 2.299 fold | Mean ± SEM (lysate inputs) ([2]; lysate inputs, relative to GFP, n=2): 2.299 ± 0.2977, n=2 | norm RLUs ([2]; dilution 0.025): 1827.1 RLUs | norm RLUs ([2]; dilution 0.05): 3654.19 RLUs | norm RLUs ([2]; dilution 0.1): 8264.86 RLUs | 95% confidence interval of difference (lysate inputs) ([2]; vs. GFP): 0.01818 to 2.580 | Difference between means (lysate inputs) ([2]; vs. GFP): 1.299 ± 0.2977 | fraction of DR5 IP'ed ([3]; GFP IP, sheet 2018-04-13 rep 2): 0.03271 | fraction of DR5 IP'ed ([3]; GFP IP, sheet 2018-09-20 rep 1): 0.01265 | fraction IP'ed ([3]; Rep 1 (second series)): 0.03271 | fraction IP'ed ([3]; Rep 2 (second series)): 0.01265 | % IP'ed ([3]; average of all replicates): 2.268% | fraction IP'ed, average ([3]; average of all replicates): 0.02268 | Mean ± SEM (fraction IP'ed) ([3]; unpaired t test sheet, GFP n=5, MPZ n=3, INS n=2, RHO n=2): 0.02268 ± 0.01003, n=2 | 95% confidence interval (difference between means) ([3]; vs. GFP, fraction IP'ed): -0.02195 to 0.04688 | Difference between means ([3]; vs. GFP, fraction IP'ed, ± SEM): 0.01247 ± 0.01339
